Measurements from publication PMC3130785, “Small Compound 6-O-Angeloylplenolin Induces Mitotic Arrest and Exhibits Therapeutic Potentials in Multiple Myeloma” (PLoS ONE, 2011).

Columns and labels:
MM.1S cells = assay: MTT assay, 6-OAP combined with Dox, Dex or BOR; format: cell-based, human; settings: 48 h, 6-OAP 5 µM, in particular Dox and BOR
Method: U266, RPMI 8226 cells (1×10^4), primary CD138+ cells, PBMCs (5×10^4), and BMSCs (1×10^4) were cultured in 96-well dishes and incubated without or with 6-OAP at indicated concentration for 48 h. MM.1S and MM.1R cells (2×10^4) were seeded into 96-well dishes and pre-cultured for 24 h, then treated with 6-OAP for 48 h. Cell proliferation was determined by MTT assay. Cell viability was estimated by trypan blue dye exclusion.
Figure 4 6-OAP enhances cytotoxicity of Dox, Dex and BOR to MM cells. (A through C) MM.1S cells were treated for 48 h with Dox (A), Dex (B) or BOR (C) in the presence or absence of 6-OAP at 5 µM. MTT assay was used to test the proliferation of MM.1S cells. (D) MM.1R cells were treated for 48 h with Dex in the presence or absence of 6-OAP at 7.5 µM. MTT assay was used to test the proliferation of MM.1R cells. *p<.001,** p<.05. (E) MM.1S cells were cultured with control media (con), 6-OAP (O, 5 µM), BOR (B, 3 nM), or 6-OAP (5 µM) plus BOR (3 nM) (OB) for indicated time points. Cells were then lysed and subjected to Western blotting using indicated antibodies. CF, cleavage fragment.

phosphorylated H3 (pH3) = assay: Western blotting of mitotic marker; format: cell-based, human; settings: U266, MM.1S and CD138+ primary cells; 24 h
Method: Cell pellets were lysed in RIPA buffer containing 50 mM Tris pH 8.0, 150 mM NaCl, 0.1% SDS, 0.5% deoxycholate, 1% NP-40, 1 mM DTT, 1 mM NaF, 1 mM sodium vanadate, and protease inhibitors cocktail (Sigma). For immunoprecipitations, cells were lysed on ice for 15 minutes in RIPA buffer. Lysates were centrifuged. The supernatant was incubated with indicated antibodies overnight, after which protein A/G Plus beads (Santa Cruz Biotechnology) were added and incubated for 3 h. The beads were washed 4 times in RIPA buffer. Then the beads were resuspended in 1× sample buffer and boiled for 3 min. Protein extracts were quantitated and loaded on 8% to 12% sodium dodecyl sulfate polyacrylamide gel, electrophoresed, and transferred to a nitrocellulose membrane (Whatman). The membrane was incubated with primary antibody, washed, and incubated with horseradish peroxidase (HRP)–conjugated secondary antibody (Pierce). Detection was performed by using a chemiluminescent western detection kit (Cell Signaling). […]
Figure 2 6-OAP induces mitotic arrest in MM cells. […] Cell cycle distribution was determined by flow cytometry. […] Cell cycle distribution was determined by flow cytometry. […]

CC=C(C)C(=O)OC1C2C(CC(C)C3C=CC(=O)C31C)OC(=O)C2C (centres unmarked) [6-OAP, 6-O-angeloylplenolin]
effect on cytotoxicity of Dox, Dex, BOR (MM.1S cells): significantly enhanced cytotoxicity
expression of pH3 (phosphorylated H3 (pH3)): up-regulated pH3
